Experimental data: US8501946B2 (Glaxo Group Limited, priority 2009, dated 2013)

These compounds were tested against T1, human recombinant P2X7 receptors (Homo sapiens, UniProt Q99572) (assay: Ethidium Accumulation Assay 1 (HEK293 cells, ATP-induced ethidium uptake)). Details: HEK293 cells expressing human P2X7; 1 mM ATP; sometimes mean of more than one measurement; read-out: Assay 1 (antagonist pIC50 for blocking ATP responses) (converted).
T1 construct: expressed in transfected cells
T1 sequence (Q99572 1-595): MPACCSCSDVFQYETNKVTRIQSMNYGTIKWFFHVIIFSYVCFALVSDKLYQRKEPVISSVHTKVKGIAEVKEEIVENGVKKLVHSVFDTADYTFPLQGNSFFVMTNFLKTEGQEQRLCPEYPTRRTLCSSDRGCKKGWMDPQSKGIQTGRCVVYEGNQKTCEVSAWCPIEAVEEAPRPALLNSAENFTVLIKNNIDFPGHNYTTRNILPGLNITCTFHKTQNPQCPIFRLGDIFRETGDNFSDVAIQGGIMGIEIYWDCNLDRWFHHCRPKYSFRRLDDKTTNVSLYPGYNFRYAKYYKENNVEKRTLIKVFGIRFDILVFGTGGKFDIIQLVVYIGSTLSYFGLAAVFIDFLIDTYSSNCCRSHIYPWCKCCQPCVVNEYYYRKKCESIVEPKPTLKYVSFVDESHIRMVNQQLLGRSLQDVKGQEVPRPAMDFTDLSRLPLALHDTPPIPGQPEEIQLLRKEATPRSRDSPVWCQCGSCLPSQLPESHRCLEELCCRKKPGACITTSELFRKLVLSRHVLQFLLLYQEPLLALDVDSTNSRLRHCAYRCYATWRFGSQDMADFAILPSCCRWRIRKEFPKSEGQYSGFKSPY
Format: cell-based
Experimental: Eithidium Accumulation Assay 1
Studies were performed using NaCl assay buffer of the following composition: 140 mM NaCl, 10 mM HEPES [4-(2-hydroxyethyl)-1-piperazine-1-ethanesulfonic acid], 5 mM N-methyl-D-glucamine, 5.6 mM KCl, 10 mM D-glucose, 0.5 mM CaCl2 (pH 7.4).
Human Embryonic Kidney (HEK) 293 cells, stably expressing human recombinant P2X7 receptors, were grown in poly-D-lysine pretreated 96 well plates for 18-24 hours.
The cells were washed twice with 350 μl of the assay buffer, before addition of 50 μl of the assay buffer containing the putative P2X7 receptor antagonist compound. (A small amount of dimethyl sulfoxide, for initially dissolving the compound, is optionally used and present in this 50 μl test compound sample.) The cells were then incubated at room temperature (19-21° C.) for 30 min before addition of ATP and ethidium (100 μM final assay concentration). The ATP concentration was chosen to be close to the EC80 for the receptor type and was 1 mM for studies on the human P2X7 receptor. Incubations were continued for 8 or 16 min and were terminated by addition of 25 μl of 1.3M sucrose containing 4 mM of the P2X7 receptor antagonist Reactive Black 5 (Aldrich). […] Antagonist pIC50 values for blocking ATP responses were determined using iterative curve fitting techniques.

`O=C(c1ccc(Cl)cc1Cl)N1CCn2c(nnc2-c2ccc(F)cc2F)C1` [Example 101, 7-[(2,4-dichlorophenyl)carbonyl]-3-(2,4-difluorophenyl)-5,6,7,8-tetrahydro[1,2,4]triazolo [4,3-a]pyrazine] was tested. Which IC50 did it give?
The IC50 was less than 100 nM.

How did the IC50 turn out when `O=C(c1cccc(Cl)c1)N1CCn2c(nnc2-c2ccccn2)C1` [Example 80, 7-[(3-chlorophenyl)carbonyl]-3-(2-pyridinyl)-5,6,7,8-tetrahydro[1,2,4]triazolo [4,3-a]pyrazine] was run?
The IC50 was less than 100 nM.

With `O=C(c1ccc(F)c(Cl)c1Cl)N1CCn2c(nnc2-c2cnccn2)C1` [Example 113, 7-[(2,3-Dichloro-4-fluorophenyl)carbonyl]-3-(2-pyrazinyl)-5,6,7,8-tetrahydro[1,2,4]triazolo[4,3-a]pyrazine] as the compound, how does the IC50 read?
Its IC50 is less than 10 nM.

`O=C(c1ccc(F)c(C(F)(F)F)c1)N1CCn2c(nnc2-c2cnccn2)C1` [Example 108, 7-{[4-fluoro-3-(trifluoromethyl)phenyl]carbonyl}-3-(2-pyrazinyl)-5,6,7,8-tetrahydro[1,2,4]triazolo [4,3-a]pyrazine] was tested. Which IC50 did it give?
Its IC50 is less than 100 nM.

How did the IC50 turn out when `O=C(c1ccc(F)cc1Cl)N1CCn2c(nnc2-c2ccccc2)C1` [Example 30, 7-[(2-Chloro-4-fluorophenyl)carbonyl]-3-phenyl-5,6,7,8-tetrahydro[1,2,4]triazolo[4,3-a]pyrazine] was run?
The IC50 was less than 100 nM.

`Cn1cccc1-c1nnc2n1CCN(C(=O)c1ccc(F)cc1Cl)C2` [Example 82, -[(2-chloro-4-fluorophenyl)carbonyl]-3-(1-methyl-1H-pyrrol-2-yl)-5,6,7,8-tetrahydro[1,2,4]triazolo [4,3-a]pyrazine] was tested. Which IC50 did it give?
The IC50 was less than 100 nM.

`O=C(c1cccc(C(F)(F)F)c1Cl)N1CCn2c(nnc2-c2ccc(F)cc2F)C1` [Example 24, 7-{[2-Chloro-3-(trifluoromethyl)phenyl]carbonyl}-3-(2,4-difluorophenyl)-5,6,7,8-tetrahydro[1,2,4]triazolo[4,3-a]pyrazine] was tested. Which IC50 did it give?
Its IC50 is less than 100 nM.

For `O=C(c1ccccc1C(F)(F)F)N1CCn2c(nnc2-c2ccccn2)C1` [Example 122, 3-(2-pyridinyl)-7-{[2-(trifluoromethyl)phenyl]carbonyl}-5,6,7,8-tetrahydro[1,2,4]triazolo[4,3-a]pyrazine], which IC50 is on record?
The IC50 was less than 100 nM.

`Cc1c(C(=O)N2CCn3c(nnc3-c3ncns3)C2)ccc(F)c1F` [Example 202, 7-[(3,4-Difluoro-2-methylphenyl)carbonyl]-3-(1,2,4-thiadiazol-5-yl)-5,6,7,8-tetrahydro[1,2,4]triazolo[4,3-a]pyrazine] was tested. Which IC50 did it give?
Its IC50 is less than 100 nM.

With `O=C(c1c(Cl)cccc1Cl)N1CCn2c(nnc2-c2ccccn2)C1` [Example 89, 7-[(2,6-dichlorophenyl)carbonyl]-3-(2-pyridinyl)-5,6,7,8-tetrahydro[1,2,4]triazolo [4,3-a]pyrazine] as the compound, how does the IC50 read?
Its IC50 is less than 501 nM.

How did the IC50 turn out when `Cc1cccnc1-c1nnc2n1CCN(C(=O)c1ccc(F)cc1Cl)C2` [Example 32, 7-[(2-chloro-4-fluorophenyl)carbonyl]-3-(3-methyl-2-pyridinyl)-5,6,7,8-tetrahydro[1,2,4]triazolo[4,3-a]pyrazine] was run?
The IC50 was less than 100 nM.

Which IC50 does the source give for `O=C(c1ccc(F)cc1Cl)N1CCn2c(nnc2-c2cccc(Cl)c2Cl)C1` [Example 130, 7-[(2-chloro-4-fluorophenyl)carbonyl]-3-(2,3-dichlorophenyl)-5,6,7,8-tetrahydro[1,2,4]triazolo[4,3-a]pyrazine] here?
The IC50 was less than 100 nM.

Which IC50 does the source give for `Cc1ncccc1-c1nnc2n1CCN(C(=O)c1cccc(Cl)c1Cl)C2` [Example 73, 7-[(2,3-dichlorophenyl)carbonyl]-3-(2-methyl-3-pyridinyl)-5,6,7,8-tetrahydro[1,2,4]triazolo [4,3-a]pyrazine] here?
Its IC50 is less than 100 nM.

Which IC50 does the source give for `O=C(c1ccc(Cl)cc1Cl)N1CCn2c(nnc2-c2cscn2)C1` [Example 97, 7-[(2,4-dichlorophenyl)carbonyl]-3-(1,3-thiazol-4-yl)-5,6,7,8-tetrahydro[1,2,4]triazolo [4,3-a]pyrazine] here?
Its IC50 is less than 10 nM.

How did the IC50 turn out when `O=C(c1cccc(Cl)c1Cl)N1CCn2c(nnc2-c2ccc(F)cc2F)C1` [Example 98] was run?
The IC50 was less than 100 nM.

With `O=C(c1ccc(Cl)cc1Cl)N1CCn2c(nnc2-c2ncccc2F)C1` [Example 93] as the compound, how does the IC50 read?
The IC50 was less than 100 nM.

`O=C(c1cccc(C(F)(F)F)c1)N1CCn2c(nnc2-c2ccccn2)C1` [Example 86] was tested. Which IC50 did it give?
The IC50 was less than 100 nM.

Which IC50 does the source give for `O=C(c1cccc(Cl)c1Cl)N1CCn2c(nnc2-c2ccc(F)cc2)C1` [Example 99, 7-[(2,3-dichlorophenyl)carbonyl]-3-(4-fluorophenyl)-5,6,7,8-tetrahydro[1,2,4]triazolo [4,3-a]pyrazine] here?
Its IC50 is less than 10 nM.

Which IC50 does the source give for `O=C(c1ccc(Cl)c(F)c1Cl)N1CCn2c(nnc2-c2ccncn2)C1` [Example 112, 7-[(2,4-Dichloro-3-fluorophenyl)carbonyl]-3-(4-pyrimidinyl)-5,6,7,8-tetrahydro[1,2,4]triazolo[4,3-a]pyrazine] here?
The IC50 was less than 100 nM.

With `O=C(c1c(F)cccc1Cl)N1CCn2c(nnc2-c2ccccn2)C1` [Example 79, 7-[(2-chloro-6-fluorophenyl)carbonyl]-3-(2-pyridinyl)-5,6,7,8-tetrahydro[1,2,4]triazolo [4,3-a]pyrazine] as the compound, how does the IC50 read?
The IC50 was less than 501 nM.

How did the IC50 turn out when `O=C(c1ccc(F)cc1Cl)N1CCn2c(nnc2-c2ccccn2)C1` [Example 37, 7-[(2-chloro-4-fluorophenyl)carbonyl]-3-(2-pyridinyl)-5,6,7,8-tetrahydro[1,2,4]triazolo [4,3-a]pyrazine] was run?
Its IC50 is less than 10 nM.

For `O=C(c1ccc(Cl)cc1Cl)N1CCn2c(nnc2-c2cnccn2)C1` [Example 92, 7-[(2,4-dichlorophenyl)carbonyl]-3-(2-pyrazinyl)-5,6,7,8-tetrahydro[1,2,4]triazolo[4,3-a]pyrazine], which IC50 is on record?
The IC50 was less than 10 nM.

How did the IC50 turn out when `COc1ccccc1-c1nnc2n1CCN(C(=O)c1ccc(F)cc1Cl)C2` [Example 127, 7-[(2-chloro-4-fluorophenyl)carbonyl]-3-[2-(methyloxy)phenyl]-5,6,7,8-tetrahydro[1,2,4]triazolo[4,3-a]pyrazine] was run?
Its IC50 is less than 501 nM.

`O=C(c1ccc(F)cc1Cl)N1CCn2c(nnc2-c2ccccc2O)C1` [Example 128, 2-{7-[(2-chloro-4-fluorophenyl)carbonyl]-5,6,7,8-tetrahydro[1,2,4]triazolo[4,3-a]pyrazin-3-yl}phenol] was tested. Which IC50 did it give?
The IC50 was less than 501 nM.

How did the IC50 turn out when `O=C(c1cccc(C(F)(F)F)c1Cl)N1CCn2c(nnc2-c2ncc(F)cc2F)C1` [Example 83, 7-{[2-chloro-3-(trifluoromethyl)phenyl]carbonyl}-3-(3,5-difluoro-2-pyridinyl)-5,6,7,8-tetrahydro[1,2,4]triazolo [4,3-a]pyrazine] was run?
Its IC50 is less than 10 nM.

Which IC50 does the source give for `O=C(c1ccc(F)cc1Cl)N1CCn2c(nnc2-c2cccnn2)C1` [Example 59, 7-[(2-chloro-4-fluorophenyl)carbonyl]-3-(3-pyridazinyl)-5,6,7,8-tetrahydro[1,2,]triazolo [4,3-a]pyrazine] here?
The IC50 was less than 501 nM.

With `O=C(c1cccc(C(F)(F)F)c1Cl)N1CCn2c(nnc2-c2ccco2)C1` [Example 77, 7-{[2-chloro-3-(trifluoromethyl)phenyl]carbonyl}-3-(2-furanyl)-5,6,7,8-tetrahydro[1,2,4]triazolo[4,3-a]pyrazine] as the compound, how does the IC50 read?
Its IC50 is less than 10 nM.

How did the IC50 turn out when `Cn1ccnc1-c1nnc2n1CCN(C(=O)c1ccc(F)cc1Cl)C2` [Example 140, 7-[(2-chloro-4-fluorophenyl)carbonyl]-3-(1-methyl-1H-imidazol-2-yl)-5,6,7,8-tetrahydro[1,2,4]triazolo[4,3-a]pyrazine] was run?
Its IC50 is less than 501 nM.

For `CC(C)(C)c1nnc2n1CCN(C(=O)c1cccc(C(F)(F)F)c1Cl)C2` [Example 25, 7-{[2-chloro-3-(trifluoromethyl)phenyl]carbonyl}-3-(1,1-dimethylethyl)-5,6,7,8-tetrahydro[1,2,4]triazolo [4,3-a]pyrazine], which IC50 is on record?
Its IC50 is less than 501 nM.

For `O=C(c1cccc(C(F)(F)F)c1Cl)N1CCn2c(Br)nnc2C1` [Example 1, 3-Bromo-7-{[2-chloro-3-(trifluoromethyl)phenyl]carbonyl}-5,6,7,8-tetrahydro[1,2,4]triazolo[4,3-a]pyrazine], which IC50 is on record?
Its IC50 is less than 10 nM.

`O=C(c1cccc(Cl)c1Cl)N1CCn2c(nnc2-c2cccnn2)C1` [Example 57, 7-[(2,3-dichlorophenyl)carbonyl]-3-(3-pyridazinyl)-5,6,7,8-tetrahydro[1,2,4]triazolo [4,3-a]pyrazine] was tested. Which IC50 did it give?
Its IC50 is less than 100 nM.

For `Cn1ccc(-c2nnc3n2CCN(C(=O)c2cccc(C(F)(F)F)c2Cl)C3)n1` [Example 27, 7-{[2-chloro-3-(trifluoromethyl)phenyl]carbonyl}-3-(1-methyl-1H-pyrazol-3-yl)-5,6,7,8-tetrahydro[1,2,4]triazolo [4,3-a]pyrazine], which IC50 is on record?
Its IC50 is less than 10 nM.
